Assay results reported in patent US20240343707A1, “SUBSTITUTED PHENYL ETHYNYL PYRIMIDINES AS POTENT INHIBITORS OF ALPHAVIRUSES” (Southern Research Institute, priority 2023, published 2024).

Experiments:
Type in all cases: cell-based
CHIKV [1] = experiment: microbe, parasite or virus in culture; details: Chikungunya virus, read-out: CHIK EC50 (μM)
CHIKV [2] = experiment: CHIKV virus titer reduction (VTR) assay in NHDF cells; details: Chikungunya virus; for EC90: read-out: CHIKV EC90 (μM); for log reduction at 10 µM: read-out: CHIKV VTR (logs)
VEEV (TC-83) = experiment: microbe, parasite or virus in culture; details: Venezuelan equine encephalitis virus, read-out: VEEV EC50 (μM)
VEEV = experiment: microbe, parasite or virus in culture; details: Venezuelan equine encephalitis virus, NHDF; for EC90: read-out: VEEV EC90 (μM); for log reduction at 10 µM: read-out: VEEV VTR (logs)
in vitro = details: human

Compound | EC50 (CHIKV [1]) [µM] | EC90 (CHIKV [2]) [µM] | log reduction at 10 µM (CHIKV [2]) | EC50 (VEEV (TC-83)) [µM] | EC90 (VEEV) [µM] | log reduction at 10 µM (VEEV) | CC50 (in vitro) [µM]
O=C1CCc2cc(NC(=O)c3cccc(C#Cc4ncccn4)c3)ccc2N1 [Compound 1, N-(2-oxo-3,4-dihydro-1H-quinolin-6-yl)-3-(2-pyrimidin-2-ylethynyl)benzamide] | 0.23 | 0.18 | 3.15 | 1.6 | 0.11 | 7.85 | > 40
O=C1CCCc2cc(NC(=O)c3cccc(C#Cc4ncccn4)c3)ccc2N1 [Compound 2, N-(2-oxo-1,3,4,5-tetrahydro-1-benzazepin-7-yl)-3-(2-pyrimidin-2-ylethynyl)benzamide] | 0.51 | 0.15 | 7.7 | 2.27 | 0.55 | 7.77 | > 40
CN1C(=O)CCc2cc(NC(=O)c3cccc(C#Cc4ncccn4)c3)ccc21 [Compound 3, N-(1-methyl-2-oxo-3,4-dihydroquinolin-6-yl)-3-(2-pyrimidin-2-ylethynyl)benzamide] | 0.3 | 0.13 | 8 | 0.77 | 0.33 | 8.58 | 35.3
O=C1Cc2cc(NC(=O)c3cccc(C#Cc4ncccn4)c3)ccc2N1 [Compound 4, N-(2-oxoindolin-5-yl)-3-(2-pyrimidin-2-ylethynyl)benzamide] | 0.66 | 0.095 | 10 | 2.11 | 0.32 | 3.19 | > 40
O=C1CCc2cc(C(=O)Nc3cccc(C#Cc4ncccn4)c3)ccc2N1 [Compound 5, 2-oxo-N-[3-(2-pyrimidin-2-ylethynyl)phenyl]-3,4-dihydro-1H-quinoline-6-carboxamide] | 3.31 | 1.09 | 2.72 | 3.98 | 1.15 | 6.43 | > 40
CCOP(=O)(OCC)c1ccc(NC(=O)c2cccc(C#Cc3ncccn3)c2)cc1 [Compound 6, N-(4-diethoxyphosphorylphenyl)-3-(2-pyrimidin-2-ylethynyl)benzamide] | 0.44 |  |  | 0.43 |  |  | > 40
O=C(NCc1ccc2c(c1)OC(F)(F)O2)c1cccc(C#Cc2ncccn2)c1 [Compound 7, N-[(2,2-difluoro-1,3-benzodioxol-5-yl)methyl]-3-(2-pyrimidin-2-ylethynyl)benzamide] | 4.32 |  | 4.43 | > 40 |  | 3.88 | > 40
O=C(Nc1ccc2c(c1)CCCCC2)c1cccc(C#Cc2ncccn2)c1 [Compound 8, 3-(2-pyrimidin-2-ylethynyl)-N-(6,7,8,9-tetrahydro-5H-benzo[7]annulen-3-yl)benzamide] | 0.71 | 0.43 | 6.89 | > 40 | 2.43 | 7.97 | 6.97
O=C(Nc1cccc(C#Cc2ncccn2)c1)c1nc2c(s1)CCCC2 [Compound 9, N-[3-(2-pyrimidin-2-ylethynyl)phenyl]-4,5,6,7-tetrahydro-1,3-benzothiazole-2-carboxamide] | 5.78 | 3.9 | 1.65 | > 40 | 7.37 | 2.59 | 9.59
O=C1CCc2cc(S(=O)(=O)Nc3cccc(C#Cc4ncccn4)c3)ccc2N1 [Compound 10, 2-oxo-N-[3-(2-pyrimidin-2-ylethynyl)phenyl]-3,4-dihydro-1H-quinoline-6-sulfonamide] | > 40 | 1.13 | 0.08 | > 40 |  | 0.81 | 33.2
O=C(Nc1cccc(C#Cc2ncccn2)c1)C12CC3CC(CC(C3)C1)C2 [Compound 11, N-[3-(2-pyrimidin-2-ylethynyl)phenyl]adamantane-1-carboxamide] | > 40 | 20.3 | 0.3 | > 40 | 20.1 | 1.02 | > 40
O=C(Nc1ccc2c(c1)CCCN2)c1cccc(C#Cc2ncccn2)c1 [Compound 12, 3-(2-pyrimidin-2-ylethynyl)-N-(1,2,3,4-tetrahydroquinolin-6-yl)benzamide] | 1.02 | 0.74 | 7.58 | 1.39 | 0.72 | 5.47 | 38.8
O=C1CC(Cc2ccc(NC(=O)c3cccc(C#Cc4ncccn4)c3)cc2)C(=O)N1 (stereo not shown) [Compound 13, N-[4-[(2,5-dioxopyrrolidin-3-yl)methyl]phenyl]-3-(2-pyrimidin-2-ylethynyl)benzamide] | 2.8 | 0.16 | 2.76 | 7.19 | 2.53 | 2.45 | > 40
COc1cc(C#Cc2ncccn2)cc(C(=O)Nc2ccc3c(c2)CCC(=O)N3)c1 [Compound 14, 3-methoxy-N-(2-oxo-3,4-dihydro-1H-quinolin-6-yl)-5-(2-pyrimidin-2-ylethynyl)benzamide] | 0.16 |  |  | 0.44 |  |  | > 40
COc1cc(C#Cc2ncccn2)cc(C(=O)Nc2ccc3c(c2)CCC(=O)N3C)c1 [Compound 15, 3-methoxy-N-(1-methyl-2-oxo-3,4-dihydroquinolin-6-yl)-5-(2-pyrimidin-2-ylethynyl)benzamide] | 0.2 |  |  | 0.33 |  |  | 26
O=C1CCc2cc(NC(=O)c3cc(C#Cc4ncccn4)cc(OC(F)(F)F)c3)ccc2N1 [Compound 16, N-(2-oxo-3,4-dihydro-1H-quinolin-6-yl)-3-(2-pyrimidin-2-ylethynyl)-5-(trifluoromethoxy)benzamide] | 0.19 |  |  | 0.16 |  |  | > 40
O=C1CCc2ccc(NC(=O)c3cccc(C#Cc4ncccn4)c3)cc2N1 [Compound 17, N-(2-oxo-3,4-dihydro-1H-quinolin-7-yl)-3-(2-pyrimidin-2-ylethynyl)benzamide] | 0.83 | 0.61 | 6.94 | 2.18 | 0.45 | 6.81 | > 40
O=C(Nc1cccc(C#Cc2ncccn2)c1)c1cc(C2CC2)[nH]c(=O)c1 [Compound 18, 2-cyclopropyl-6-oxo-N-[3-(2-pyrimidin-2-ylethynyl)phenyl]-1H-pyridine-4-carboxamide] | 28.1 |  | 0.62 | 10.3 | 5.66 | 2.43 | > 40
CC(C)(C)c1ccc(NC(=O)c2cccc(C#Cc3ncccn3)c2)cc1 [Compound 19, N-(4-tert-butylphenyl)-3-(2-pyrimidin-2-ylethynyl)benzamide] | 1.04 | 0.2 | 7.59 | 0.93 | 0.3 | 8.26 | 5.08
CC(C)(C#N)c1ccc(NC(=O)c2cccc(C#Cc3ncccn3)c2)cc1 [Compound 20, N-[4-(1-cyano-1-methyl-ethyl)phenyl]-3-(2-pyrimidin-2-ylethynyl)benzamide] | 0.27 | 0.07 | 10 | 0.34 | 0.06 | 8.08 | 17.8
O=C(Nc1cccc(C#Cc2ncccn2)c1)c1ccc(N2CCCCC2=O)cc1 [Compound 21, 4-(2-oxo-1-piperidyl)-N-[3-(2-pyrimidin-2-ylethynyl)phenyl]benzamide] | > 40 |  | 1.83 | 32.2 |  | 0.72 | > 40
O=C(Nc1ccc2c(c1)CCCC2)c1cccc(C#Cc2ncccn2)c1 [Compound 22, 3-(2-pyrimidin-2-ylethynyl)-N-tetralin-6-yl-benzamide] | 0.83 | 0.7 |  | 1.26 | 0.7 |  | > 40
O=C(Nc1ccc(C(F)(F)F)cc1)c1cccc(C#Cc2ncccn2)c1 [Compound 23, 3-(2-pyrimidin-2-ylethynyl)-N-[4-(trifluoromethyl)phenyl]benzamide] | 1.2 | 0.85 |  | 0.71 | 0.82 |  | > 40
O=C(Nc1ccc(N2CCCCC2=O)cc1)c1cccc(C#Cc2ncccn2)c1 [Compound 24, N-[4-(2-oxo-1-piperidyl)phenyl]-3-(2-pyrimidin-2-ylethynyl)benzamide] |  | 0.63 | 4.18 |  | 2.44 | 4.6 | 
